Results on one compound are retold here after patent publication US8940477B2 (priority 2007, dated 2015).

Molecules are shown by their SMILES. “Also recorded” adds a separate entry of the source.

This experiment addresses BoNT/A (Clostridium botulinum, UniProt P0DPI1). The experiment is classed as cell-based.

BoNT/A, sequence (P0DPI1 2-448 limits assumed): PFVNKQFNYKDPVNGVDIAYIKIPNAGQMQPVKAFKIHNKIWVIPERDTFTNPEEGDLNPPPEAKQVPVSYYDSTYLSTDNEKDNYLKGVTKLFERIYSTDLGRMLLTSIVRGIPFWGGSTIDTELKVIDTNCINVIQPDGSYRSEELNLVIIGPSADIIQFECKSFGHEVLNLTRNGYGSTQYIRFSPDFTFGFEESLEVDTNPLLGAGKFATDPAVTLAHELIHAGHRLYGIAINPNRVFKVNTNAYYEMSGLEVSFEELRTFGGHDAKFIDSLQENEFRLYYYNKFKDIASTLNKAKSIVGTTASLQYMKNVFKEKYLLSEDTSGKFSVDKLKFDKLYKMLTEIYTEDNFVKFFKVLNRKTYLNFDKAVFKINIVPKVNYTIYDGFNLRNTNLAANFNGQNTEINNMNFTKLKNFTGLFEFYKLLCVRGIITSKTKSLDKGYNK
BoNT/A, sequence (P0DPI1 449-1296 limits assumed): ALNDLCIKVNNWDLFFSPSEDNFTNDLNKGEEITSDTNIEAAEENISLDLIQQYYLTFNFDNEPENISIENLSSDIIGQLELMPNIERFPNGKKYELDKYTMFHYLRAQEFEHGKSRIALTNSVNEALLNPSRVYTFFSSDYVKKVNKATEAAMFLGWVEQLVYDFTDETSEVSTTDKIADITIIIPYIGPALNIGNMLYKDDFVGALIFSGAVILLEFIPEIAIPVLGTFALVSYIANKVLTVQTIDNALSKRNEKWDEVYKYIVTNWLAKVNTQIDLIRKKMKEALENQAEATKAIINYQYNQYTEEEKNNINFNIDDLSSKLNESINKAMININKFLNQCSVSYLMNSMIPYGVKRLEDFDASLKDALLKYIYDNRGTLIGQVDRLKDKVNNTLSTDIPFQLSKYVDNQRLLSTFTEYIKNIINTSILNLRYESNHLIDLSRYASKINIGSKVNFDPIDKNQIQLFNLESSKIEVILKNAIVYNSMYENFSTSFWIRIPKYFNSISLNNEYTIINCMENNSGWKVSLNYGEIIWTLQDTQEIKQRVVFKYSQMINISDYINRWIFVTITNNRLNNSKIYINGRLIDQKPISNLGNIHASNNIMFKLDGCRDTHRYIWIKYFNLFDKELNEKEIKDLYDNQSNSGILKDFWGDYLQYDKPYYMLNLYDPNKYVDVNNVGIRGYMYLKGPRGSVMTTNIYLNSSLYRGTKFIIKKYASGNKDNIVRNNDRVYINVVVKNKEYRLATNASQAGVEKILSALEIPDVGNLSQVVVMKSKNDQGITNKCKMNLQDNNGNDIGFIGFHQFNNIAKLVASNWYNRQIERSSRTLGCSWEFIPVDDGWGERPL

In the case of `CC(=O)O[C@@H]1C[C@H](O)[C@@]23CO[C@@H](O)[C@]1(C)[C@@H]2C[C@@H](O)[C@]1(C)[C@@H]3C(=O)[C@H](OC(C)=O)[C@@]2(C)[C@H](c3ccoc3)C[C@H]3O[C@]321` [Toosendanin], the “SNAP25 cleavage in presence of Toosendanin” value is reported as “only full-length SNAP25 was detected; also recorded: protects against BoNT/A induced SNAP25 cleavage”.
